# Legend:
# human H3 receptor = molecular target: T1, human H3 receptor (Homo sapiens, UniProt Q9Y5N1); experiment: Human H3 radioligand binding ([3H]-N-alpha-methylhistamine, SPA); conditions: membranes of CHO cells expressing human H3
# T1 construct: expressed in transfected cells
# Method in brief: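 Membranes from H3-expressing cells (10 μg protein/well) in 50 mM Tris HCl pH 7.4, 5 mM MgCl2, 0.1% BSA with ~1 nM [3H]-N-alpha-methylhistamine and compound (0.01 nM–30 μM), SPA beads, 4 h, room temperature, dark. Non-specific binding defined with 10 μM clobenpropit; bound radioligand read by scintillation counting.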
# [1] = molecular target: T2, rat histamine H3 receptor (Rattus norvegicus, UniProt Q9QYN8); experiment: Rat H3 radioligand binding ([3H]-N-alpha-methylhistamine, SPA); conditions: membranes of CHO-A3 cells expressing rat H3; [3H]-N-alpha-methylhistamine; read-out: Rat H3 Ki
# T2 construct: encoding the entire 445-amino-acid rat histamine H3 receptor; expressed in transfected cells
# Method in brief: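 Membranes from CHO-A3 cells stably expressing full-length rat H3 receptor (445 aa) incubated with ~1 nM [3H]-N-alpha-methylhistamine and compound (0.01 nM–30 μM) in 50 mM Tris HCl pH 7.4, 5 mM MgCl2, 0.1% BSA, 4 h, room temperature; SPA bead read-out. Non-specific binding defined with 10 μM clobenpropit.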
# T1 sequence (Q9Y5N1 whole entry): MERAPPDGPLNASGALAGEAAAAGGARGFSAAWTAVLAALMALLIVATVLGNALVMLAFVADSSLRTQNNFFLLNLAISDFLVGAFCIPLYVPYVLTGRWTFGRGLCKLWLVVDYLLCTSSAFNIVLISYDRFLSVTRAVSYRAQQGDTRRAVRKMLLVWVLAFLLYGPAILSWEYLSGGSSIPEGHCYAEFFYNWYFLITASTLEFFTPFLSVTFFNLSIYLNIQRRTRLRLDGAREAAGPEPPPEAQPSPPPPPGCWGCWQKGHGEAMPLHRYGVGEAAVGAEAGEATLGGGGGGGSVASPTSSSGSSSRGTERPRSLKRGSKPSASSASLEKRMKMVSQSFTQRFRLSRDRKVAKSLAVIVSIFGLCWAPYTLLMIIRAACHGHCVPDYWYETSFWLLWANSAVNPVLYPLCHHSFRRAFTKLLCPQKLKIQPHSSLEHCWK
# T2 sequence (Q9QYN8 whole entry): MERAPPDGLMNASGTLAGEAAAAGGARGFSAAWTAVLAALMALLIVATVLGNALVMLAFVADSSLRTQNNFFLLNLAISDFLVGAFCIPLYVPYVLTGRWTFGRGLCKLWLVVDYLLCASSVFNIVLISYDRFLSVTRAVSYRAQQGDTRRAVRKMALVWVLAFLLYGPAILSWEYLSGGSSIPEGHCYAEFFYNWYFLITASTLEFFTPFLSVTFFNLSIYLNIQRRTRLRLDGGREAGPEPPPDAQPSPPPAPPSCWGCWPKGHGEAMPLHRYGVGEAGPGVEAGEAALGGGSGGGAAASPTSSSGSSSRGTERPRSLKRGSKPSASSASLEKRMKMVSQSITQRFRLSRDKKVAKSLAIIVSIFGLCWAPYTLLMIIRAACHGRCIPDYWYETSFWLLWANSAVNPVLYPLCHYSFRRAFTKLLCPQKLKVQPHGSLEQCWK
SMILES,melting point,Ki (human H3 receptor),Ki [1]
"C[C@@H]1CCCN1CCCOc1ccc(C(=O)CN2CCC(F)(F)CC2)cc1F [Example 141, 2-(4,4-Difluoro-piperidin-1-yl)-1-{3-fluoro-4-[3-((R)-2-methyl-pyrrolidin-1-yl)-propoxy]-phenyl}-ethanone]",220 °C,0.1 to 100 nM,101 to 500 nM
"C[C@@H]1CCCN1CCCOc1ccc(C(=O)CN2CCN(c3ccccc3)CC2)cc1F [Example 143, 1-{3-Fluoro-4-[3-((R)-2-methyl-pyrrolidin-1-yl)-propoxy]-phenyl}-2-(4-phenyl-piperazin-1-yl)-ethanone]",140 °C,0.1 to 100 nM,0.1 to 100 nM
"CCC(=O)N1CCN(CC(=O)c2ccc(OCCCN3CCC[C@H]3C)cc2)CC1 [Example 144, 1-[4-(2-{4-[3-((R)-2-Methyl-pyrrolidin-1-yl)-propoxy]-phenyl}-2-oxo-ethyl)-piperazin-1-yl]-propan-1-one]",65 to 70 °C,0.1 to 100 nM,0.1 to 100 nM
"C[C@@H]1CCCN1CCCOc1ccc(C(=O)CN2CCN(C(=O)c3ccc4ccccc4n3)CC2)cc1 [Example 145, 1-{4-[3-((R)-2-Methyl-pyrrolidin-1-yl)-propoxy]-phenyl}-2-[4-(quinoline-2-carbonyl)-piperazin-1-yl]-ethanone]",115.4 to 120 °C,0.1 to 100 nM,0.1 to 100 nM
"C[C@@H]1CCCN1CCCOc1ccc(C(=O)CN2CCN(C(=O)C3CCCCC3)CC2)cc1F [Example 146, 2-(4-Cyclohexanecarbonyl-piperazin-1-yl)-1-{3-fluoro-4-[3-((R)-2-methyl-pyrrolidin-1-yl)-propoxy]-phenyl}-ethanone]",232 °C,0.1 to 100 nM,0.1 to 100 nM
"O=C(CN1CCC(F)(F)CC1)c1ccc(OCCCN2CCCCC2)c(Cl)c1 [Example 147, 1-[3-Chloro-4-(3-piperidin-1-yl-propoxy)-phenyl]-2-(4,4-difluoro-piperidin-1-yl)-ethanone]",122 to 135 °C,101 to 500 nM,> 1000 nM
"Cc1cc(C(=O)CN2CCN(C(=O)C3CCCCC3)CC2)ccc1OCCCN1CCC[C@H]1C [Example 148, 2-(4-Cyclohexanecarbonyl-piperazin-1-yl)-1-{3-methyl-4-[3-((R)-2-methyl-pyrrolidin-1-yl)-propoxy]-phenyl}-ethanone]",161 to 166.5 °C,0.1 to 100 nM,0.1 to 100 nM
"C[C@@H]1CCCN1CCCOc1ccc(C(=O)CN2CCN(C(=O)Oc3ccc(F)cc3)CC2)cc1 [Example 149, 4-(2-{4-[3-((R)-2-Methyl-pyrrolidin-1-yl)-propoxy]-phenyl}-2-oxo-ethyl)-piperazine-1-carboxylic acid 4-fluoro-phenyl ester]",234 to 236 °C,0.1 to 100 nM,0.1 to 100 nM
"Cc1cc(C(=O)CN2CCNC(=O)C2)ccc1OCCCN1CCC[C@H]1C [Example 150, 4-(2-{3-Methyl-4-[3-((R)-2-methyl-pyrrolidin-1-yl)-propoxy]-phenyl}-2-oxo-ethyl)-piperazin-2-one]",79 to 85 °C,0.1 to 100 nM,101 to 500 nM
"C[C@@H]1CCCN1CCCOc1ccc(C(=O)CN2CCN(C(=O)c3ccccc3-c3ccccc3)CC2)cc1 [Example 152, 2-[4-(Biphenyl-2-carbonyl)-piperazin-1-yl]-1-{4-[3-((R)-2-methyl-pyrrolidin-1-yl)-propoxy]-phenyl}-ethanone]",117 to 119 °C,0.1 to 100 nM,0.1 to 100 nM
"C[C@@H]1CCCN1CCCOc1cccc(C(=O)CN2CCN(C(=O)c3ccccc3)CC2)c1 [Example 153, 2-(4-Benzoyl-piperazin-1-yl)-1-{3-[3-((R)-2-methyl-pyrrolidin-1-yl)-propoxy]-phenyl}-ethanone]",125 to 135 °C,101 to 500 nM,501 to 1000 nM
"C[C@@H]1CCCN1CCCOc1cccc(C(=O)CN2CCC(F)(F)CC2)c1 [Example 154, 2-(4,4-Difluoro-piperidin-1-yl)-1-{3-[3-((R)-2-methyl-pyrrolidin-1-yl)-propoxy]-phenyl}-ethanone]",110 to 120 °C,0.1 to 100 nM,101 to 500 nM
"C[C@@H]1CCCN1CCCOc1ccc(C(=O)CN2CCN(C)C(=O)C2)cc1 [Example 155, 1-Methyl-4-(2-{4-[3-((R)-2-methyl-pyrrolidin-1-yl)-propoxy]-phenyl}-2-oxo-ethyl)-piperazin-2-one]",115 to 120 °C,0.1 to 100 nM,0.1 to 100 nM
"CC(=O)N1CCN(CC(=O)c2ccc(OCCCN3CCC[C@H]3C)c(C)c2)CC1 [Example 156, 2-(4-Acetyl-piperazin-1-yl)-1-{3-methyl-4-[3-((R)-2-methyl-pyrrolidin-1-yl)-propoxy]-phenyl}-ethanone]",120 to 126 °C,0.1 to 100 nM,0.1 to 100 nM
"C[C@@H]1CCCN1CCCOc1ccc(C(=O)CN2CCN(C(=O)c3cccc(Cl)c3Cl)CC2)cc1 [Example 157, 2-[4-(2,3-Dichloro-benzoyl)-piperazin-1-yl]-1-{4-[3-((R)-2-methyl-pyrrolidin-1-yl)-propoxy]-phenyl}-ethanone]",137 to 150 °C,0.1 to 100 nM,0.1 to 100 nM

# From patent US20140296212A1, “SUBSTITUTED PHENOXYPROPYLCYCLOAMINE DERIVATIVES AS HISTAMINE-3 (H3) RECEPTOR LIGANDS” (CEPHALON, INC., priority 2009, published 2014)
